Reference: PubChem BioAssay AID2060327 (Molecular Pharmacology Branch, DTP, NCI, 2025)

System: PC-3 multi-cell spheroids, viability
Experiment: Anticancer human tumor PC-3 cell line growth inhibition [IpAb];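 also: spheroids exposed to compounds for 7 days before readout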;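 as to viability, T/C: 100% = DMSO vehicle control wells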
Conditions: for IC50: curve of first compound; for viability, T/C: stronger effect = lower value
Text: Combinatorial screen of targeted agents with ipatasertib and abemaciclib in multi-cell type tumor spheroids
A high-throughput screen of multi-cell type tumor spheroids was designed to identify active combinations of targeted small molecules and ipatasertib or abemaciclib. Complex spheroids include a stromal component modeled by human endothelial cells (HUVEC) and fibroblasts modeled by human mesenchymal stem cells (MSCs). The concentration ranges selected for each drug and investigational agent were based upon clinically achievable concentrations if the clinical Cmax of the agent was known.
Compounds. The drugs and investigational agents: ipatasertib (NSC767898), abemaciclib(NSC768073), selumetinib (NSC741078), trametinib (758246), adavosertib (NSC754352), everolimus (NSC733504), sapanisertib (NSC764658), vemurafenib (NSC761431), venetoclax (NSC766270), copanlisib (NSC809693), apelisib (NSC765974), palbociblib (NSC758247), vemurafenib (NSC761431), dabrafenib (NSC764134), ravoxertinib (NSC781343), BMS-387032 (NSC767048), sotorasib (NSC818433), talazoparib (NSC767125) and afursertib (NSC778305), were obtained from the National Cancer Institute (NCI) Developmental Therapeutics Program Chemical Repository. The FDA-approved anticancer drug set is available from the NCI Developmental Therapeutics Program. […] The stock solutions were prepared in dimethyl sulfoxide (DMSO, Sigma-Aldrich, St. Louis, MO, cat. D2650) at 800-fold the tested concentration and stored at -70 degrees C prior to their use. All drugs and investigational agents were tested over a range starting from a high concentration at or near the clinical Cmax and decreasing in half-log increments. If the clinical Cmax for an agent had not been determined, the highest concentration tested was 10 microM.
NCI60 Cell Culture. NCI60 cell lines were obtained from the NCI Developmental Therapeutics Program Tumor Repository. For each lot of cells, the Repository performed Applied Biosystems AmpFLSTR Identifiler testing with PCR amplification to confirm consistency with the published Identifier STR profile for each cell line. Cells were kept in continuous culture for no more than 20 passages. The optimal seeding densities for each of the cell lines at each time point assessed were determined prior to performing the concentration response studies. Briefly, the NCI60 human tumor lines were grown as monolayers in RPMI 1640 medium supplemented with 10% FBS and 2 mmol/L L-glutamine.
An additional 9 lines were from the NCI60 cell line panel including MDA-MB-231 breast carcinoma, MDA-MB-468 breast carcinoma, MCF7 breast carcinoma, Hs578T breast carcinoma, MALME-3M melanoma, SK-MEL-2 melanoma, SK-OV-3 ovarian carcinoma, DU-145 prostate carcinoma, PC-3 prostate carcinoma, all cell lines along with major genetic alterations are listed on Table 2. Pooled donor human umbilical vein endothelial cells (HUVEC, Lonza, cat. CC-2519) and human mesenchymal stem cells (hMSC, Lonza, cat. PT-2501) were purchased from Lonza (Walkersville, MD).
PDMR cell lines were grown in complete medium (DC medium): Dulbecco's modified Eagle's medium (DMEM)/F12 supplemented with 5% fetal bovine serum (FBS), 2 mM L-glutamine, 100 U/mL penicillin and 100 µg/ml streptomycin, 0.4 µg/ml hydrocortisone, 10 ng/ml epidermal growth factor (EGF) recombinant human protein, 24 µg/mL adenine, and 0.1 mg/mL primocin. During culture from frozen stock vials, PDMR cells were cultured in the same medium containing 10 µM Y-27632 (see Table 3). The PDCs were cultured in complete DMEM/F12 media without 10 microM Y-27632 dihydrochloride for at least two passages prior to the screen. The pooled donor HUVEC and hMSC were cultured in endothelial cell growth medium 2 (PromoCell, Heidelberg, Germany, cat. C-22011) and mesenchymal stem cell growth medium 2 (PromoCell, cat. C-28009), respectively. For all experiments, HUVEC and hMSC were used at passages </=5.
[…]

[1] = second compound 0.1 µM, first compound 0.0316 µM
[2] = second compound 0.1 µM, first compound 0.1 µM
[3] = second compound 0.1 µM, first compound 0.316 µM
[4] = second compound 0.1 µM, first compound 1 µM
[5] = second compound 0.1 µM, first compound 3.16 µM
[6] = second compound 0.1 µM, first compound 10 µM
[7] = second compound 0.316 µM, first compound 0.0316 µM
[8] = second compound 0.316 µM, first compound 0.1 µM
[9] = second compound 0.316 µM, first compound 0.316 µM
[10] = second compound 0.316 µM, first compound 1 µM
[11] = second compound 0.316 µM, first compound 3.16 µM
[12] = second compound 0.316 µM, first compound 10 µM
[13] = second compound 1 µM, first compound 0.0316 µM
[14] = second compound 1 µM, first compound 0.1 µM
[15] = second compound 1 µM, first compound 0.316 µM
[16] = second compound 1 µM, first compound 1 µM
[17] = second compound 1 µM, first compound 3.16 µM
[18] = second compound 1 µM, first compound 10 µM
[19] = second compound 3.16 µM, first compound 0.0316 µM
[20] = second compound 3.16 µM, first compound 0.1 µM
[21] = second compound 3.16 µM, first compound 0.316 µM
[22] = second compound 3.16 µM, first compound 1 µM
[23] = second compound 3.16 µM, first compound 3.16 µM
[24] = second compound 3.16 µM, first compound 10 µM
[25] = second compound 10 µM, first compound 0.0316 µM
[26] = second compound 10 µM, first compound 0.1 µM
[27] = second compound 10 µM, first compound 0.316 µM
[28] = second compound 10 µM, first compound 1 µM
[29] = second compound 10 µM, first compound 3.16 µM
[30] = second compound 10 µM, first compound 10 µM

| SMILES | IC50 (second compound 0.1 µM) [nM] | IC50 (second compound 0.316 µM) [nM] | IC50 (second compound 1 µM) [nM] | viability, T/C [1] [%] | viability, T/C [2] [%] | viability, T/C [3] [%] | viability, T/C [4] [%] | viability, T/C [5] [%] | viability, T/C [6] [%] | viability, T/C [7] [%] | viability, T/C [8] [%] | viability, T/C [9] [%] | viability, T/C [10] [%] | viability, T/C [11] [%] | viability, T/C [12] [%] | viability, T/C [13] [%] | viability, T/C [14] [%] | viability, T/C [15] [%] | viability, T/C [16] [%] | viability, T/C [17] [%] | also measured |
| --- | --- | --- | --- | --- | --- | --- | --- | --- | --- | --- | --- | --- | --- | --- | --- | --- | --- | --- | --- | --- | --- |
| Cc1nc(NC(=O)N2CCCC2C(N)=O)sc1-c1ccnc(C(C)(C)C(F)(F)F)c1 (stereo not given) + CC(C)NCC(C(=O)N1CCN(c2ncnc3c2C(C)CC3O)CC1)c1ccc(Cl)cc1 | 955 | < 31.6 | < 31.6 | 60.7 | 51.8 | 47.8 | 49.5 | 41.8 | 10.6 | 43.7 | 44.4 | 39.2 | 30.2 | 24.6 | 9.66 | 26.5 | 24.1 | 17.8 | 15.8 | 12.5 | IC50 (second compound 3.16 µM): < 31.6 nM; IC50 (second compound 10 µM): < 31.6 nM; viability, T/C [18]: 5.72%; viability, T/C [19]: 14.2%; viability, T/C [20]: 14.7%; viability, T/C [21]: 11.8%; viability, T/C [22]: 11.4%; viability, T/C [23]: 8.54%; viability, T/C [24]: 3.24%; viability, T/C [25]: 13.4%; viability, T/C [26]: 12.8%; viability, T/C [27]: 10.5%; viability, T/C [28]: 9.02%; viability, T/C [29]: 7.87%; viability, T/C [30]: 2.4% |
| Cn1ncc(Cl)c1-c1cc(C(=O)NC(CN)Cc2cccc(F)c2)sc1Cl (stereo not given) + CCN1CCN(Cc2ccc(Nc3ncc(F)c(-c4cc(F)c5nc(C)n(C(C)C)c5c4)n3)nc2)CC1 | 62.9 | 52.6 | < 31.6 | 53.2 | 48.3 | 17.5 | 13.3 | 9.97 | 0.1 | 56.5 | 44 | 19.4 | 13.9 | 11.6 | 0.16 | 46.3 | 38.9 | 28 | 17.2 | 12.1 | IC50 (second compound 0.01 µM): 127 nM; IC50 (second compound 0.0316 µM): 101 nM; viability, T/C (second compound 0.01 µM, first compound 0.0316 µM): 70.5%; viability, T/C (second compound 0.01 µM, first compound 0.1 µM): 55.3%; viability, T/C (second compound 0.01 µM, first compound 0.316 µM): 35.8%; viability, T/C (second compound 0.01 µM, first compound 1 µM): 17.5%; viability, T/C (second compound 0.01 µM, first compound 3.16 µM): 15.5%; viability, T/C (second compound 0.01 µM, first compound 10 µM): 0.14%; viability, T/C (second compound 0.0316 µM, first compound 0.0316 µM): 57.2%; viability, T/C (second compound 0.0316 µM, first compound 0.1 µM): 53%; viability, T/C (second compound 0.0316 µM, first compound 0.316 µM): 26.9%; viability, T/C (second compound 0.0316 µM, first compound 1 µM): 13.8%; viability, T/C (second compound 0.0316 µM, first compound 3.16 µM): 13.8%; viability, T/C (second compound 0.0316 µM, first compound 10 µM): 0.1%; viability, T/C [18]: 0.16% |
| CCCS(=O)(=O)Nc1ccc(F)c(C(=O)c2c[nH]c3ncc(-c4ccc(Cl)cc4)cc23)c1F + CC(C)NCC(C(=O)N1CCN(c2ncnc3c2C(C)CC3O)CC1)c1ccc(Cl)cc1 | 9890 | < 31.6 | < 31.6 | 81.9 | 87.5 | 95.2 | 94.1 | 83.8 | 49.3 | 45.2 | 43.8 | 46.4 | 52.7 | 50.3 | 27 | 25 | 22.6 | 27 | 28.4 | 26.3 | IC50 (second compound 3.16 µM): < 31.6 nM; IC50 (second compound 10 µM): < 31.6 nM; viability, T/C [18]: 15.1%; viability, T/C [19]: 13.6%; viability, T/C [20]: 15.6%; viability, T/C [21]: 16.8%; viability, T/C [22]: 17.2%; viability, T/C [23]: 14.5%; viability, T/C [24]: 10.5%; viability, T/C [25]: 12.8%; viability, T/C [26]: 13%; viability, T/C [27]: 15%; viability, T/C [28]: 14.9%; viability, T/C [29]: 12.6%; viability, T/C [30]: 7.8% |
